The values that follow come from patent US9302985B2, “Benzyl sulfonamide derivatives as RORc modulators” (Genentech, Inc., priority 2012, dated 2016).

In this experiment the target is RORc ligand binding domain (Homo sapiens (Human), UniProt P51449). Kind of experiment: In vitro RORc Ligand Binding Assay. The settings on record: displacement of 6 nM 25-[3H]hydroxycholesterol; 0.6 ug/mL RORc receptor; 3 h at 25° C. On the procedure: In vitro RORc Ligand Binding Assay
This assay was used to determine a compound's potency in inhibiting activity of RORc by determining, Kiapp, IC50, or percent inhibition values.
On day of the assay, 100 uL of 0.05% CHAPS (in deionized H2O) was added to all wells of the GFB Unifilter plate and allowed soak for 1 h. A wash buffer of 50 mM HEPES (pH 7.4), 150 mM NaCl, and 5 mM MgCl2 was prepared to wash the filter plate. To prepare an assay buffer, BSA was added to the wash buffer to reach 0.01% and DTT was added to reach 1 mM.
The 20× compound stocks were diluted in DMSO with Assay Buffer 4-fold to reach 5× the final test concentration in 25% DMSO (10 uL compound+30 uL Assay Buffer). Solutions were mixed by aspiration several times with a pipette set on 50 uL volume. For the assay, 10 uL of 5× compound stock solutions in 25% DMSO were added to the assay plate in duplicate.
For 25-hydroxycholesterol in 25% DMSO/75% Assay Buffer; 10 uL per well was used for NSB samples. Wells for Total Binding and No Receptor sample determination contained 10 uL of 25% DMSO/75% Assay Buffer per well.
Add 20 uL to all wells to reach 6 nM final concentration in the assay.
Stock receptor solution was diluted in assay buffer to obtain 1.5 ug/mL in Assay Buffer. 20 uL was added to all wells. For No Receptor samples, 20 uL Assay Buffer was substituted for receptor solution.
Assay plates were 96-well polypropylene V-bottom plates. 10 uL of 5× compound in 25% DMSO/75% Assay Buffer was added to Test wells. 10 uL of 25% DMSO/75% Assay Buffer was added to Total Binding or No Receptor wells. 10 uL of 5 uM 25-hydroxycholesterol in 25% DMSO/75% Assay Buffer was added to NSB wells. […] 20 uL of 1.5 ug/mL RORc receptor was added to wells (or 40 uL Assay Buffer to No R wells). Following addition to the wells, the plates were incubated 3 h at 25° C.
Using a Packard Filtermate Harvester, the filter plate were washed 4 times following transfer of the incubated samples. Plates were dry-filtered completely (2 h at 50° C. or overnight at room temperature). 50 uL Microscint 0 was added to all wells and read on Topcount protocol Inverted.
Final concentrations were as follows: 50 mM HEPES buffer (pH 7.4); 150 mM NaCl; 1 mM DTT; 5 mM MgCl2; 0.01% BSA; 5% DMSO; 0.6 ug/mL RORc receptor; 6 nM 25-[^3H]hydroxycholesterol. For NSB wells, 1 uM 25-hydroxycholesterol was also present.

RORc ligand binding domain, sequence (P51449 269-508, species assumed): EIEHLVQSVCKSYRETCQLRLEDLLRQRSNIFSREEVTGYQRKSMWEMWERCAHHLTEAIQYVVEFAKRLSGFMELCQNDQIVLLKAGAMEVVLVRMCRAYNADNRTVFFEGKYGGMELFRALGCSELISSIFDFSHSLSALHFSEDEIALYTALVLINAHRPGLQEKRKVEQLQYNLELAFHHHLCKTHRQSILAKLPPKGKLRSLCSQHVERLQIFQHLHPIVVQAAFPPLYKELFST

In the case of `CC(C)CN(c1cccc(Cl)c1)S(=O)(=O)c1ccc(-c2ccc(S(N)(=O)=O)cc2)cc1` [Compound 14, Biphenyl-4,4′-disulfonic acid 4′-amide 4-[(3-chloro-phenyl)-isobutyl-amide]], the 50% inhibitory concentration (IC50) (in general, the concentration that gives 50% inhibition) stood at 0.103 µM. As to `CC(C)CN(Cc1ccccc1)S(=O)(=O)c1ccc(-c2ccc(C(N)=O)cc2)cc1` [Compound 7, 4′-(Benzyl-isobutyl-sulfamoyl)-biphenyl-4-carboxylic acid amide], the concentration for half-maximal inhibition (IC50) was 0.124 µM. As for `CC(C)CN(c1cccc(Cl)c1)S(=O)(=O)c1ccc(Oc2ccc(S(C)(=O)=O)cc2)cc1` [Compound 5, N-(3-Chloro-phenyl)-N-isobutyl-4-(4-mehanesulfonyl-phenoxy)-benzenesulfonamide], the figure is 0.138 µM; as for `CC(C)CN(c1ccccc1Cl)S(=O)(=O)c1ccc(-c2ccc(C(N)=O)cc2)cc1` [Compound 16, 4′-[(2-Chloro-phenyl)-isobutyl-sulfamoyl]-biphenyl-4-carboxylic acid amide], 0.039 µM.

In the case of `CC(C)CN(c1cccc(Cl)c1)S(=O)(=O)c1ccc(-c2ccc(C(N)=O)cc2)cc1` [Compound 15, 4′-[(3-Chloro-phenyl)-isobutyl-sulfamoyl]-biphenyl-4-carboxylic acid amide], the IC50 was found to be 0.038 µM. The IC50 values of the last two compounds are within 1.5-fold of each other.
